# Assay: Time-dependent distribution of apocynin in plasma, urine and tissues after iv bolus injection (HPLC-MS/MS)
# Assay type: in vivo, mouse
# Conditions: plasma, brain and liver samples after iv bolus injection of apocynin, HPLC-MS/MS
# Protocol: All studies were performed in accordance with the protocols approved by the Home Office under the Animals (Scientific Procedures) Act 1986, UK. For the PKPD study, male CD1 mice (Charles River Ltd) at 12 weeks of age with a body weight range between 25 and 30 g were used for the study. Mice were fasted 12 hours before bolus iv injection of apocynin at 5 mg/kg body weight (dosing volume 5 mL/kg) via a lateral tail vein. Control mice were injected with vehicle (solvent of apocynin) at each time points. Four mice/per time points were sacrificed at 0, 1, 2.5, 5, 15, 30, 60 minutes and then at 3, 6, 12, and 24 hours after iv injection of apocynin. Blood samples were collected and centrifuged at 2000 g, 4°C for 10 minutes for plasma collection. Urine samples were collected from bladders. Tissues were harvested for further experiments.
# The detection of apocynin in tissue sample was performed as described previously with some modifications. ^17 In brief, apocynin was detected using an Accela HPLC coupled to a linear ion‐trap tandem mass spectrometry (LTQ‐Orbitrap XL; Thermo‐Fisher Scientific) (HPLC‐MS/MS) in the negative ion mode. Phenacetin (500 ng/mL) was used as an internal standard in every vial. A reversed‐phase 50 × 2.1 mm ID, […], 175 Å pore C18 Hypersil Gold column (Thermo Scientific) was used with injection volume set at 5 µL for the separation of apocynin and phenacetin. Calibration curve used for PK analysis was constructed by spiking apocynin in mouse plasma using eight calibrators ranging from 1 to 10000 ng/mL with great reproducibility and R ^2 ≥ 0.996 for subsequent 5 separate experiments on different days. […] Limit of detection for apocynin was set up at signal to noise ratio ≥ 3, ^18 which is 1 ng/mL in our system. The limitation of quantification was set up at signal to noise ratio ≥ 10, which is 10 ng/mL in our system. Orbitrap component was used for the full scan spectra of apocynin and diapocynin.
smiles,measurement,value
COc1cc(C(C)=O)cc(-c2cc(C(C)=O)cc(OC)c2O)c1O [Diapocynin],diapocynin detection as metabolite in samples,not detected
